Data: US11530206B2, “Phenylaminopyrimidine amide autophagy inhibitors and methods of use thereof” (Deciphera Pharmaceuticals, LLC, priority 2019, dated 2022)

system: ULK kinase; experiment: pATG13 levels of mutant KRas HCT-116 cells after treatment with ULK inhibitors in combination with trametinib (ELISA); assay type: cell-based, human; conditions: HCT-116 colon cancer cells, 250 nM trametinib, overnight, pS318-ATG13
Experimental: The following day, 10 μL of media containing trametinib or DMSO as a control was added to wells. […] A dose response of a test compound (0.6 μL per well) was added. DMSO (0.6 μL) was added to control wells. The plate was briefly shaken to mix wells and then incubated at 37° C. overnight. The next day, the media was aspirated and cells were washed with Dulbecco's Phosphate Buffered Saline (Gibco). Cells were lysed using MPER lysis buffer (Pierce, Rockford, Ill.) containing Halt Phosphatase and Protease Inhibitors (Pierce, Rockford, Ill.) and Phosphatase inhibitor cocktail 2 (Sigma, St. Louis, Mo.) at 4° C. for 10 minutes with shaking.
Plate wells were washed with ELISA wash buffer. Cell lysate was added to wells and incubated at room temperature for 2 hours. Plate wells were washed with ELISA wash buffer. […] Plate wells were washed with ELISA wash buffer. […] Plate wells were washed with ELISA wash buffer. […] The reaction was stopped with 2N Sulfuric Acid. The plate was analyzed at on a plate reader measuring absorbance at 450 nm and 540 nm (background). Signal was calculated by first subtracting the background absorbance at 540 nm from the absorbance at 450 nm for each well. Next, the background corrected absorbance at 450 nm from blank wells was subtracted from test wells. Data was compared to control wells to determine % ATG13 phosphorylation. GraphPad Prism was used to calculate IC50 values.

SMILES | IC50 [nM]
CN1CCN(c2ccc(Nc3ncc(C(F)(F)F)c(NCCCN4CCCCC4=O)n3)c(C3CC3)c2)CC1 [Example 14] | 10 to 100
CCc1cc(N2CCN(C)CC2)ccc1Nc1ncc(C(F)(F)F)c(NCCCN2CCCOC2=O)n1 [Example 39] | 10 to 100
CN1CCN(c2ccc(Nc3ncc(C(F)(F)F)c(NCCCN4CCCOC4=O)n3)c(C3CC3)c2)CC1 [Example 41] | 10 to 100
CCc1cc(N2CCNCC2)ccc1Nc1ncc(C(F)(F)F)c(NCCCN2CCCOC2=O)n1 [Example 46] | 100 to 300
CN1CCN(c2ccc(Nc3ncc(C(F)(F)F)c(NCCCN4CCCOCC4=O)n3)c(C3CC3)c2)CC1 [Example 52] | 10 to 100
CN1CCN(c2ccc(Nc3ncc(Cl)c(NCCCN4CCCOCC4=O)n3)c(C3CC3)c2)CC1 [Example 55] | 10 to 100
CN1CCN(c2ccc(Nc3ncc(C(F)(F)F)c(NCCCN4CCOCCC4=O)n3)c(C3CC3)c2)CC1 [Example 70] | 10 to 100
CCc1cc(N2CC3CCC(C2)N3C)ccc1Nc1ncc(C(F)(F)F)c(NCCCN2CCOCCC2=O)n1 [Example 74] | 10 to 100
CCc1cc(N2CCN(C)CC2)ccc1Nc1ncc(Br)c(NCCCN2CCOCCC2=O)n1 [Example 76] | 10 to 100
CCc1cc(N2CCNCC2)ccc1Nc1ncc(C(F)(F)F)c(NCCCN2CCOCCC2=O)n1 [Example 84] | 10 to 100
CCc1cc(N2CCN(C)CC2)c(F)cc1Nc1ncc(C(F)(F)F)c(NCCCN2CCOCCC2=O)n1 [Example 86] | 100 to 300
